Experimental findings from patent publication US9868766B2, “Peptides as oxytocin agonists” (Hoffmann-La Roche Inc., priority 2012, dated 2018) are described below.

The target of this assay is T1, human Oxytocin (OTR) receptor (Homo sapiens, UniProt P30559).
T1 construct: expressed in transfected cells
T1 sequence (P30559 1-389): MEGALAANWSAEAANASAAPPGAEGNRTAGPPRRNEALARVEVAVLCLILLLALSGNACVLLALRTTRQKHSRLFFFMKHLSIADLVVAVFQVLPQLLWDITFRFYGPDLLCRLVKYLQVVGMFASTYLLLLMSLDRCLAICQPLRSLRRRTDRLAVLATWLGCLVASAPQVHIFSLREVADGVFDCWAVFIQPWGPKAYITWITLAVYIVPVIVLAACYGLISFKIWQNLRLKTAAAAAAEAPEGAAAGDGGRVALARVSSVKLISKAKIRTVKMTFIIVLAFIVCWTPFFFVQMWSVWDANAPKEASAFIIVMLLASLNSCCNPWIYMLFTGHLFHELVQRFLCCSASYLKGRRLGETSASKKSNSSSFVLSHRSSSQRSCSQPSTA
The assay can be described thus: Calcium flux assay (FLIPR), agonist mode, CHO cells expressing human OTR. The assay is classed as cell-based. Particulars: for EC50: CHO cells stably expressing human OTR, calcium flux, read-out: hOT EC50; for hOT efficacy (%) / Emax: maximum response normalized to endogenous full agonist = 100%; for Emax: CHO, read-out: hOT efficacy (%). From the text: Chines Hamster Ovary (CHO) cells were transfected with expression plasmids encoding either the human V1a, the human Oxytocin (OTR) or the humanV2 receptor, the later in combination with the chimeric Gqs5 G protein to redirect the signal to Calcium flux. Stable cells were cloned by limiting dilution to yield monoclonal cell lines expressing either human V1a, human V2+Gqs5 or human OTR receptors and selected based on functional responses detected on a fluorometric imaging plate reader (FLIPR) detecting Calcium flux in the cell after receptor activation.
On the afternoon before the assay, cells were plated at a density of 50,000 cells/well into black 96 well plates with clear bottoms to allow cell inspection and fluorescence measurements from the bottom of each well. The density of cells was sufficient to yield a confluent monolayer the next day. Hanks balanced salt solution, without phenol red, containing 20 mM HEPES (pH 7.3) and 2.5 mM probenecid (assay buffer) was prepared fresh for each experiment. Compound dilutions were made using a Beckman Biomek 2000 laboratory automation workstation, in assay buffer containing 1% DMSO. The dye-loading buffer consisted of a final concentration of 2 μM Fluo-4-AM (dissolved in DMSO and pluronic acid) in assay buffer. […] Once dye-loaded, the cells were washed thoroughly on an Embla cell washer with the assay buffer to remove any unincorporated dye. Exactly 100 μl assay buffer was left in each well.
Each 96 well plate containing dye-loaded cells was placed into the FLIPR machine and the laser intensity set to a suitable level to detect low basal fluorescence. To test compounds as agonists, 25 μl diluted compound was added to the plate 10 seconds into the fluorescent measurements and fluorescent response was recorded for 5 minutes. The fluorescence data was normalized to the endogenous full agonist dose-response set at 100% for the maximum response and 0% for the minimum. […] The concentration of agonist that produced a half-maximal response is represented by the EC50 value, the logarithm of which yielded the pEC50 value.

Positions of bridges follow the written chain, without caps; N, C: chain ends. Non-standard residues stand in square brackets, D forms with d. Residues, ends and D or L forms follow the SMILES beside them. Pro(trans-4-F) = O=C(O)[C@@H]1C[C@@H](F)CN1; Gly(octyl) = CCCCCCCC[C@H](N)C(=O)O; d(aIle) = CC[C@H](C)[C@@H](N)C(=O)O; Aoc(2) = CCCCCC[C@H](N)C(=O)O; αMeL = CC(C)C[C@](C)(N)C(=O)O; hLeu = CC(C)CC[C@H](N)C(=O)O; β3hP = O=C(O)C[C@@H]1CCCN1; Pip = O=C(O)[C@@H]1CCCCN1; Dap = NC[C@H](N)C(=O)O; Aib = CC(C)(N)C(=O)O; Sar = CNCC(=O)O

Regarding `CC[C@H](C)[C@@H]1NC(=O)[C@H](Cc2ccc(O)cc2)NC(=O)CNC(=O)CC[C@H](C(=O)N2CCC[C@H]2C(=O)N[C@@H](CC(C)C)C(=O)NCC(N)=O)NC(=O)[C@H](CC(N)=O)NC(=O)[C@H](CCC(N)=O)NC1=O` [Example 14] (GYIQN[dE]PLG-NH2; lactam N-6), the EC50 is 250 nM and the “hOT efficacy (%)” value is reported as 92%.
Consider `CCCCCCCC[C@H](NC(=O)CN(C)C(=O)[C@@H]1CCC(=O)NCC(=O)N[C@@H](Cc2ccc(O)cc2)C(=O)N[C@@H]([C@@H](C)CC)C(=O)N[C@@H](CCC(N)=O)C(=O)N[C@@H](CC(N)=O)C(=O)N1)C(=O)NCC(N)=O` [Example 54] (GYIQNE[Sar][Gly(octyl)]G-NH2; lactam N-6), for which the EC50 came out at 0.8 nM and the Emax is 134%.
As for `CC[C@H](C)[C@@H]1NC(=O)[C@H](Cc2ccc(O)cc2)NC(=O)CNC(=O)CC[C@@H](C(=O)N2C[C@H](F)C[C@H]2C(=O)N[C@@H](CC(C)C)C(=O)NCC(N)=O)NC(=O)[C@H](CC(N)=O)NC(=O)[C@H](CCC(N)=O)NC1=O` [Example 46] (GYIQNE[Pro(trans-4-F)]LG-NH2; lactam N-6), the EC50 was 10 nM and the “hOT efficacy (%)” value is 104%.
In the same order, the values of `CC[C@H](C)[C@@H]1NC(=O)[C@H](Cc2ccc(O)cc2)NC(=O)CNC(=O)CC[C@@H](C(=O)N2CCC[C@@H]2C(=O)N[C@@H](CC(C)C)C(=O)NCC(N)=O)NC(=O)[C@H](CC(N)=O)NC(=O)[C@H](CCC(N)=O)NC1=O` [Example 23] (GYIQNE[dP]LG-NH2; lactam N-6) are 88 nM and 64%.
The like results for `CC[C@H](C)[C@@H]1NC(=O)[C@H](Cc2ccc(O)cc2)NC(=O)CN(C)C(=O)CC[C@@H](C(=O)N2CCC[C@H]2C(=O)N[C@@H](CC(C)C)C(=O)NCC(N)=O)NC(=O)[C@H](CC(N)=O)NC(=O)[C@H](CCC(N)=O)NC1=O` [Example 12] ([Sar]YIQNEPLG-NH2; lactam N-6) were, in that order, 48 nM and 82%.
In the same order, the values of `CC[C@H](C)[C@@H]1NC(=O)[C@H](Cc2ccc(O)cc2)NC(=O)CNC(=O)CC[C@@H](C(=O)N2CCC[C@H]2CC(=O)N[C@@H](CC(C)C)C(=O)NCC(N)=O)NC(=O)[C@H](CC(N)=O)NC(=O)[C@H](CCC(N)=O)NC1=O` [Example 4] (GYIQNE[β3hP]LG-NH2; lactam N-6) are 31 nM and 102%.
As to `CC[C@H](C)[C@@H]1NC(=O)[C@H](Cc2ccc(O)cc2)NC(=O)CNC(=O)CC[C@@H](C(=O)N2CCC[C@H]2C(=O)NCC(=O)NCC(N)=O)NC(=O)[C@H](CC(N)=O)NC(=O)[C@H](CCC(N)=O)NC1=O` [Example 7] (GYIQNEPGG-NH2; lactam N-6), the EC50 came out at 124 nM and the “hOT efficacy (%)” value is reported as 87%.
Turning to `CC[C@H](C)[C@@H]1NC(=O)[C@H](Cc2ccc(O)cc2)NC(=O)CNC(=O)CC[C@@H](C(=O)N(C)CC(=O)N[C@@H](CC(C)C)C(=O)NCC(N)=O)NC(=O)[C@H](CC(N)=O)NC(=O)[C@H](C)NC1=O` [Example 37] (GYIANE[Sar]LG-NH2; lactam N-6), the EC50 turned out to be 4 nM and the Emax turned out to be 137%.
The like results for `CC[C@H](C)[C@@H]1NC(=O)[C@H](Cc2ccc(O)cc2)NC(=O)CNC(=O)CC[C@@H](C(=O)N(C)CC(=O)N[C@@H](CN)C(=O)NCC(N)=O)NC(=O)[C@H](CC(N)=O)NC(=O)[C@H](CCC(N)=O)NC1=O` [Example 42] (GYIQNE[Sar][Dap]G-NH2; lactam N-6) were, in that order, 1 nM and 119%.
Turning to `CC[C@H](C)[C@@H]1NC(=O)[C@H](Cc2ccc(O)cc2)NC(=O)CNC(=O)CC[C@@H](C(=O)N2CCC[C@H]2C(=O)N[C@@](C)(CC(C)C)C(=O)NCC(N)=O)NC(=O)[C@H](CC(N)=O)NC(=O)[C@H](CCC(N)=O)NC1=O` [Example 36] (GYIQNEP[αMeL]G-NH2; lactam N-6), the EC50 worked out at 41 nM and the “hOT efficacy (%)” value worked out at 138%.
For `CC[C@H](C)[C@@H]1NC(=O)[C@H](Cc2ccc(O)cc2)NC(=O)CNC(=O)CC[C@@H](C(=O)N2CCCC[C@H]2C(=O)N[C@@H](CC(C)C)C(=O)NCC(N)=O)NC(=O)[C@H](CC(N)=O)NC(=O)[C@H](CCC(N)=O)NC1=O` [Example 47] (GYIQNE[Pip]LG-NH2; lactam N-6), the EC50 was 1.5 nM and the Emax came out at 111%.
Regarding `CC(C)C[C@@H]1NC(=O)[C@H](Cc2ccc(O)cc2)NC(=O)CNC(=O)CC[C@@H](C(=O)N2CCC[C@H]2C(=O)N[C@@H](CC(C)C)C(=O)NCC(N)=O)NC(=O)[C@H](CC(N)=O)NC(=O)[C@H](CCC(N)=O)NC1=O` [Example 8] (GYLQNEPLG-NH2; lactam N-6), the EC50 stood at 100 nM and the “hOT efficacy (%)” value is 92%.
On to `CC[C@H](C)[C@@H]1NC(=O)[C@H](Cc2ccc(O)cc2)NC(=O)CNC(=O)CC[C@@H](C(=O)N(C)CC(=O)NC(C)(C)C(=O)NCC(N)=O)NC(=O)[C@H](CC(N)=O)NC(=O)[C@H](CCC(N)=O)NC1=O` [Example 49] (GYIQNE[Sar][Aib]G-NH2; lactam N-6), for which the EC50 came out at 5.9 nM and the Emax amounted to 97%.
Regarding `CC[C@H](C)[C@H]1NC(=O)[C@H](Cc2ccc(O)cc2)NC(=O)CNC(=O)CC[C@@H](C(=O)N2CCC[C@H]2C(=O)N[C@@H](CC(C)C)C(=O)NCC(N)=O)NC(=O)[C@H](CC(N)=O)NC(=O)[C@H](CCC(N)=O)NC1=O` [Example 22] (GY[d(aIle)]QNEPLG-NH2; lactam N-6), the EC50 was 98 nM and the “hOT efficacy (%)” value worked out at 116%.
As for `CC[C@H](C)[C@@H]1NC(=O)[C@H](Cc2ccc(O)cc2)NC(=O)CNC(=O)CC[C@@H](C(=O)N(C)CC(=O)N[C@@H](Cc2c[nH]c3ccccc23)C(=O)NCC(N)=O)NC(=O)[C@H](CC(N)=O)NC(=O)[C@H](CCC(N)=O)NC1=O` [Example 38] (GYIQNE[Sar]WG-NH2; lactam N-6), the EC50 came out at 1 nM and the Emax came out at 126%.
Consider `CC[C@H](C)[C@@H]1NC(=O)[C@H](Cc2ccc(O)cc2)NC(=O)CNC(=O)CC[C@@H](C(=O)N(C)CC(=O)N[C@@H](CCC(C)C)C(=O)NCC(N)=O)NC(=O)[C@H](CC(N)=O)NC(=O)[C@H](CCC(N)=O)NC1=O` [Example 43] (GYIQNE[Sar][hLeu]G-NH2; lactam N-6), for which the EC50 turned out to be 26 nM and the “hOT efficacy (%)” value was 124%.
`CCCCCC[C@H](NC(=O)CN(C)C(=O)[C@@H]1CCC(=O)NCC(=O)N[C@@H](Cc2ccc(O)cc2)C(=O)N[C@@H]([C@@H](C)CC)C(=O)N[C@@H](CCC(N)=O)C(=O)N[C@@H](CC(N)=O)C(=O)N1)C(=O)NCC(N)=O` [Example 53] (GYIQNE[Sar][Aoc(2)]G-NH2; lactam N-6): the EC50 turned out to be 1.1 nM and the Emax turned out to be 127%.
For `CC[C@H](C)[C@@H]1NC(=O)[C@H](Cc2ccc(O)cc2)NC(=O)CNC(=O)CC[C@@H](C(=O)N2CCC[C@H]2C(=O)N[C@@H](CC(C)C)C(=O)N(C)CC(N)=O)NC(=O)[C@H](CC(N)=O)NC(=O)[C@H](CCC(N)=O)NC1=O` [Example 5] (GYIQNEPL[Sar]-NH2; lactam N-6), the EC50 stood at 181 nM and the “hOT efficacy (%)” value was determined as 108%.
The like results for `CC[C@H](C)[C@@H]1NC(=O)[C@H](Cc2ccc(O)cc2)NC(=O)[C@H](C)NC(=O)CC[C@@H](C(=O)N2CCC[C@H]2C(=O)N[C@@H](CC(C)C)C(=O)NCC(N)=O)NC(=O)[C@H](CC(N)=O)NC(=O)[C@H](CCC(N)=O)NC1=O` [Example 3] (AYIQNEPLG-NH2; lactam N-6) were, in that order, 4 nM and 94%.
As to `CC[C@H](C)[C@@H]1NC(=O)[C@H](Cc2ccc(O)cc2)NC(=O)CNC(=O)CC[C@@H](C(=O)N(C)CC(=O)N[C@@H](CC(C)C)C(=O)NCC(N)=O)NC(=O)[C@H](CC(N)=O)NC(=O)[C@H](CO)NC1=O` [Example 52] (GYISNE[Sar]LG-NH2; lactam N-6), the EC50 came out at 4.3 nM and the Emax stood at 121%.
